Measured values as given in PMC4139342, “Pharmacokinetics-Pharmacodynamics Analysis of Bicyclic 4-Nitroimidazole Analogs in a Murine Model of Tuberculosis” (PLoS ONE, 2014).
Converted amounts (≈) assume the structure as drawn.

Legend:
[1] = female, CD-1, mouse, in vivo, po, 25 mg/kg
in vivo [2] = details: female, CD-1, mouse, po, 25 mg/kg
physchem [3] = assay: physchem
[4] = not given; remark: listed apart in the source
[5] = system: M. tuberculosis (Mtb) (H37Rv, ATCC 27294); assay: microbe, parasite or virus in culture; assay type: cell-based; details: for MIC99: Mycobacterium tuberculosis
in vivo [6] = details: female, CD-1, mouse, iv, 5 mg/kg; for clearance: i.v. CL
[7] = In vivo plasma PK after oral dosing in CM-2 formulation; details: female, CD-1, mouse, plasma, po, 25 mg/kg
[8] = In vivo plasma PK after intravenous dosing; details: mice, i.v. dosing at 5 mg/kg; for half-life: female, CD-1, mouse, plasma, iv, 5 mg/kg, T1/2 (i.v)
in vivo [9] = details: female, CD-1, mouse, po, 25 mg/kg; remark: listed apart in the source
Mtb H37Rv = assay: In vivo mouse efficacy, established murine TB model; set-up: species or system Balb/c mice; details: for Mean log lung CFU ± SEM / log reduction at 25 mg/kg / log reduction at 100 mg/kg / Mean log lung CFU reduction ± SEM compared to untreated controls: 5 animals; for Efficacy compared with PA-824, in words: significance at P<0.05; for Dose dependence of efficacy, in words: 25 versus 100 mg/kg oral daily for 4 weeks; for log reduction at 25 mg/kg / log reduction at 100 mg/kg: Mycobacterium tuberculosis, H37RV, po, 672 h, read-out: Mean log lung CFU reduction ± SEM compared to untreated controls
Protocol: In vivo mouse efficacy studies were determined after intranasal infection of Balb/c mice with 10^3 cfu Mtb H37Rv. Treatment was initiated 4 weeks after infection. Compounds were orally administered in CM-2 formulation for 4 weeks daily. Bacterial loads were determined at 2 and 4 weeks post treatment. Statistical analysis was done by a one-way analysis of variance, followed by a multiple comparison analysis of variance by a one-way Tukey test (GraphPad Prism, version 5.02, San Diago, California USA, www.graphpad.com). Differences were considered statistically significant at the 95% level of confidence.

[10] = female, CD-1, mouse, in vivo, po, 25 mg/kg; remark: listed apart in the source
[11] = In vivo lung PK after oral dosing; details: female, CD-1, mouse, 25 mg/kg
physchem [12] = details: pH 6.8, aqueous buffer, thermodynamic from solid
in vitro [13] = details: human, Caco-2
[14] = Cytotoxicity against THP1 macrophage cell lines; assay type: cell-based; details: human
in vitro [15] = details: mouse, plasma
[16] = cited from earlier work
[17] = 25 mg/kg oral daily for 4 weeks
[18] = 100 mg/kg oral daily for 4 weeks

| Compound | Lung AUC24 [1] [µg·h/g] | Lung Cmax [1] [µg/g] | PAMPA %FA [%] | PAMPA Log Pe | AUC (in vivo [2]) [ng·h/mL] | Cmax (in vivo [2]) [ng/mL] | Tmax (in vivo [2]) [h] | bioavailability (in vivo [2]) [%] | logP (physchem [3]) | MIC99 [5] [µg/mL] | Vd (in vivo [6]) [L/kg] | clearance (in vivo [6]) [mL/min/kg] | half-life [7] [h] | half-life [8] [h] | Tmax (in vivo [9]) [h] | Mean log lung CFU ± SEM (Mtb H37Rv; [17]) [log CFU] | Efficacy compared with PA-824, in words (Mtb H37Rv; [17]) | log reduction at 25 mg/kg (Mtb H37Rv; [17]) | Plasma free fCmax [10] [µg/mL] | half-life [11] [h] | other results |
| --- | --- | --- | --- | --- | --- | --- | --- | --- | --- | --- | --- | --- | --- | --- | --- | --- | --- | --- | --- | --- | --- |
| O=[N+]([O-])c1cn2c(n1)OC[C@@H](NCc1ccc(OC(F)(F)F)c(O)c1)C2 [NI-147] | 2.6 | 0.5 | 43 | –5.2 cm/sec | 20 | 40 | 0.1 | 0.3 | 2.4 | 0.03 (≈ 0.0802 µM) | 0.4 | 70.8 | 0.2 | 0.3 | 0.1 |  |  |  |  |  | Solubility pH 6.8 [4]: 56.0 µg/mL |
| CC[C@H]1Oc2nc([N+](=O)[O-])cn2C[C@@H]1NCc1ccc(OC(F)(F)F)cc1 [NI-182] | 73.2 | 11.4 | 99 | –3.8 cm/sec | 22500 | 3500 | 0.5 | 82 | 3.05 | 0.02 (≈ 0.0518 µM) | 3 | 15.2 | 2 | 2.8 | 0.5 | 4.84±0.14 | comparable efficacy to PA-824 | 1.23 to 1.56 | 0.3 | 1.9 | Mean log lung CFU ± SEM (Mtb H37Rv; [18]): 4.81±0.18 log CFU; Efficacy compared with PA-824, in words (Mtb H37Rv; [18]): significantly (P<0.05) less efficacious than PA-824; Dose dependence of efficacy, in words (Mtb H37Rv): no dose-dependent increase in bactericidal activity; log reduction at 100 mg/kg (Mtb H37Rv; [18]): 1.26 ± 0.18; solubility (physchem [12]): 32 µg/mL (≈ 82.8 µM); Papp A→B (in vitro [13]): 18.3 ×10⁻⁶ cm/s; Papp B→A (in vitro [13]): 13.9 ×10⁻⁶ cm/s; efflux ratio (in vitro [13]): 0.8; CC50 [14]: > 10 µg/mL; Kp (in vivo [9]; Lung to Plasma ratio AUC24): 3.3; Kp (in vivo [9]; Lung to Plasma ratio Cmax): 3.3; fraction unbound (in vitro [15]): 0.087 |
| O=[N+]([O-])c1cn2c(n1)OC[C@@H](NCc1ccc(OC(F)(F)F)c(F)c1)C2 [NI-136] | 39.8 | 7.2 | 83 | –4.7 cm/sec | 10700 | 2000 | 0.5 | 64 | 2.6 | 0.03 (≈ 0.0797 µM) | 1.8 | 25.1 | 2 |  | 0.5 | 4.93±0.06 | comparable efficacy to PA-824 | 1.31 ± 0.06 | 0.3 | 2.5 | Mean log lung CFU reduction ± SEM compared to untreated controls (Mtb H37Rv; [17]): 1.31 ± 0.06 log CFU; Mean log lung CFU ± SEM (Mtb H37Rv; [18]): 4.18±0.17 log CFU; Efficacy compared with PA-824, in words (Mtb H37Rv; [18]): comparable efficacy to PA-824; Dose dependence of efficacy, in words (Mtb H37Rv): dose dependent increase in efficacy; log reduction at 100 mg/kg (Mtb H37Rv; [18]): 2.06 ± 0.17; Absolute lung concentrations, fold lower than PA-824 [1]: 2.5-7.5 fold; Papp A→B (in vitro [13]): 15.4 ×10⁻⁶ cm/s; Papp B→A (in vitro [13]): 12.6 ×10⁻⁶ cm/s; efflux ratio (in vitro [13]): 0.8; Solubility pH 6.8 [4]: 43.0 µg/mL; In vitro potency relative to PA-824 [5]: 10 times; CC50 [14]: > 10 µg/mL; T1/2 (i.v) [8]: 1.3 h; Kp (in vivo [9]; Lung to Plasma ratio AUC24): 3.7; Kp (in vivo [9]; Lung to Plasma ratio Cmax): 3.6; fraction unbound (in vitro [15]): 0.173 |
| O=[N+]([O-])c1cn2c(n1)OC[C@@H](NCc1ccc(OC(F)(F)F)c(Cl)c1)C2 [NI-135] | 18.6 | 5.5 | 90 | –4.5 cm/sec | 4800 | 1200 | 0.5 | 51 | 3 | 0.03 (≈ 0.0764 µM) | 4.2 | 41 | 2.9 | 4 | 0.5 | 4.76±0.07 | comparable efficacy to PA-824 | 1.48 ± 0.07 | 0.1 | 3.3 | Mean log lung CFU reduction ± SEM compared to untreated controls (Mtb H37Rv; [17]): 1.48 ± 0.07 log CFU; Mean log lung CFU ± SEM (Mtb H37Rv; [18]): 4.36±0.07 log CFU; Efficacy compared with PA-824, in words (Mtb H37Rv; [18]): comparable efficacy to PA-824; Dose dependence of efficacy, in words (Mtb H37Rv): dose dependent increase in efficacy; log reduction at 100 mg/kg (Mtb H37Rv; [18]): 1.88 ± 0.07; Absolute lung concentrations, fold lower than PA-824 [1]: 2.5-7.5 fold; Papp A→B (in vitro [13]): 23.4 ×10⁻⁶ cm/s; Papp B→A (in vitro [13]): 15.3 ×10⁻⁶ cm/s; efflux ratio (in vitro [13]): 0.6; Solubility pH 6.8 [4]: 77.0 µg/mL; In vitro potency relative to PA-824 [5]: 10 times; CC50 [14]: > 10 µg/mL; Kp (in vivo [9]; Lung to Plasma ratio AUC24): 3.9; Kp (in vivo [9]; Lung to Plasma ratio Cmax): 4.6; fraction unbound (in vitro [15]): 0.085 |
| CC[C@H]1OC(=O)[C@H](C)[C@@H](O[C@H]2C[C@@](C)(OC)[C@@H](O)[C@H](C)O2)[C@H](C)[C@@H](O[C@@H]2O[C@H](C)C[C@H](N(C)C)[C@H]2O)[C@](C)(O)C[C@@H](C)CN(C)[C@H](C)[C@@H](O)[C@]1(C)O [Azithromycin] |  |  |  |  |  |  |  |  |  |  |  |  |  |  |  |  |  |  |  |  | AUC lung/serum [16]: 21; Vss [16]: 33 L/kg |
| COc1nc2ccc(Br)cc2cc1[C@@H](c1ccccc1)[C@@](O)(CCN(C)C)c1cccc2ccccc12 [TMC207] |  |  |  |  |  |  |  |  |  |  |  |  |  |  |  |  |  |  |  |  | AUC L/P ratio ([16]; lungs): 22 |
| CC[C@H]1Oc2nc([N+](=O)[O-])cn2C[C@@H]1NCc1ccc(-c2ccc(OC(F)(F)F)cc2)cc1 [NI-297] | 233.4 | 16.3 | 97 | –4.1 cm/sec | 99100 | 6000 | 8 | 100 | 6 | 0.02 (≈ 0.0432 µM) | 2.6 | 5 | 4.9 | 6.7 | 8 | 4.51±0.11 | comparable efficacy to PA-824 | 1.23 to 1.56 | 0.1 | 4.6 | solubility (physchem [12]): < 2 µg/mL; CC50 [14]: > 10 µg/mL; Kp (in vivo [9]; Lung to Plasma ratio AUC24): 2.4; Kp (in vivo [9]; Lung to Plasma ratio Cmax): 2.7; fraction unbound (in vitro [15]): 0.018 |
